Test results: BigSolDB 2.1

N#Cc1c(Cl)c(Cl)c(Cl)c(C#N)c1Cl
solubility (mole fraction)
Conditions | in 1,4-dioxane | in DMAc | in DMF | in MIBK | in THF | in acetone | in acetonitrile | in cyclohexanone | in ethyl acetate | in n-propyl acetate
288.15 K | 0.0082 | 0.017 | 0.00992 | 0.00381 | 0.00909 | 0.00369 | 0.00134 | 0.0079 | 0.00311 | 0.0033
293.15 K | 0.00951 | 0.0191 | 0.0111 | 0.00447 | 0.0102 | 0.00443 | 0.00161 | 0.00905 | 0.00374 | 0.00384
298.15 K | 0.0109 | 0.0211 | 0.0128 | 0.00509 | 0.012 | 0.00512 | 0.00193 | 0.0106 | 0.00435 | 0.00444
303.15 K | 0.0118 | 0.0239 | 0.0142 | 0.00603 | 0.0137 | 0.00566 | 0.00228 | 0.0123 | 0.00496 | 0.00523
308.15 K | 0.0136 | 0.0264 | 0.0155 | 0.00668 | 0.0155 | 0.00682 | 0.00272 | 0.0135 | 0.00543 | 0.00566
313.15 K | 0.015 | 0.03 | 0.0177 | 0.00802 | 0.0172 | 0.00779 | 0.00308 | 0.0154 | 0.00643 | 0.0067
318.15 K | 0.0177 | 0.0334 | 0.0197 | 0.0102 | 0.0208 | 0.00932 | 0.00413 | 0.019 | 0.00744 | 0.0079
323.15 K | 0.0215 | 0.0359 | 0.0233 | 0.0115 | 0.023 | 0.0113 | 0.00462 | 0.0222 | 0.00893 | 0.00904
